Source: paper PMC10657444, “Design and evaluation of tadpole-like conformational antimicrobial peptides” (Communications Biology, 2023)
Converted amounts (≈) assume the structure as drawn. Residues, ends and D or L forms follow the SMILES beside them.

Legend:
[1] = tested on: K. pneumoniae ATCC 700603; assay: Transmission electron microscopy; type: cell-based, Klebsiella pneumoniae; conditions: 2 × MIC, 60 min
Protocol: The processing method of the samples for transmission electron microscopy (TEM) was the same as the treatment for SEM. The samples were then prefixed with 2.5% glutaraldehyde at 4°C overnight, post-fixed with osmium tetroxide for 70 min, and washed twice with PBS (pH 7.4). Subsequently, the samples were dehydrated for 10 min in a graded ethanol series (30, 50, 70, 90, and 100%) followed by 10 min in a mixture of absolute ethanol and acetone (1:1, v/v) and 10 min in absolute acetone. The specimens were transferred to a mixture of absolute acetone and epoxy resin (1:1, v/v) for 30 min and then to pure epoxy resin overnight at a constant temperature. Finally, the samples were sectioned using an ultramicrotome, stained with uranyl acetate and lead citrate, and then observed by TEM (Hitachi H-7650, Japan).

E. coli ATCC 25922 = type: cell-based, Escherichia coli
Description: Bacteria were cultivated in Luria-Bertani (LB) broth.

MRSA USA 300 = assay: microbe, parasite or virus in culture; type: cell-based, Staphylococcus aureus
Protocol: (§1) MRSA USA 300 and K. pneumoniae ATCC 700603 were employed to assess the development of resistance. From inoculated microtiter panels, an aliquot of the well with the highest concentration permitting growth was taken and back diluted in fresh media to a turbidity of a 0.5 McFarland standard. This suspension was then further diluted and used to inoculate a fresh MIC panel resulting in a final concentration of 5 × 10^6 CFU/mL. Panels were incubated according to CLSI guidelines (M07, 11th edition, 2018), MICs were recorded and the next inoculum was prepared from the well containing the highest concentration of drug that allowed growth in identical fashion as described above.

[2] = tested on: K. pneumoniae ATCC 700603; assay: Scanning electron microscopy; type: cell-based, Klebsiella pneumoniae; conditions: 2 × MIC, 60 min
Protocol: Mid-log phase bacteria (MRSA USA 300 and K. pneumoniae ATCC 700603) grown in LB broth were adjusted to a density of 5 × 10^6 CFU/mL. […] All samples were centrifuged at 8000 rpm for 5 min, washed and then resuspended in PBS. Bacterial cells were fixed with 2.5% glutaraldehyde, and then incubated at 37°C on a glass slide for 20 min. Samples were dehydrated by passing through gradient ethanol (10%, 30%, 50%, 70%, 90%, and 100%) for 5 min at each concentration. Slides were dried with an automatic critical point drying instrument (Leica EM CPD300), and a small amount of gold was sputtered onto the samples using a sputter coater system to avoid charging in the microscope. Finally, the bacteria were visualized under a field-emission scanning electron microscopy (FESEM) device (Sirion 200).

[3] = tested on: K. pneumoniae ATCC 700603; assay: microbe, parasite or virus in culture; type: cell-based, Klebsiella pneumoniae
Protocol: as §1

CC[C@H](C)[C@H](NC(=O)[C@H](CCCNC(=N)N)NC(=O)[C@H](CCCNC(=N)N)NC(=O)[C@H](CC(C)C)NC(=O)[C@H](Cc1ccccc1)NC(=O)[C@@H](N)CCCNC(=N)N)C(=O)N[C@@H](Cc1ccccc1)C(=O)N[C@@H](Cc1ccccc1)C(=O)N[C@@H](Cc1ccccc1)C(=O)N[C@@H](Cc1ccccc1)C(N)=O [HT2] (H-RFLRRIFFFF-NH2)
membrane and intracellular structure by TEM (in words) [1]: cytoplasmic membranes became blurred and separated
MIC Gram- E. coli ATCC 25922 (E. coli ATCC 25922): 3.13 µM (≈ 4.53 µg/mL)
Concentration (MIC in drug resistance assay) (MRSA USA 300; MRSA USA 300, day 0): 3.125 µg/mL
Concentration (MIC in drug resistance assay) (MRSA USA 300; MRSA USA 300, day 1): 3.125 µg/mL
Concentration (MIC in drug resistance assay) (MRSA USA 300; MRSA USA 300, day 2): 3.125 µg/mL
Concentration (MIC in drug resistance assay) (MRSA USA 300; MRSA USA 300, day 3): 3.125 µg/mL
Concentration (MIC in drug resistance assay) (MRSA USA 300; MRSA USA 300, day 11): 3.125 µg/mL
Concentration (MIC in drug resistance assay) (MRSA USA 300; MRSA USA 300, day 13): 3.125 µg/mL
Concentration (MIC in drug resistance assay) (MRSA USA 300; MRSA USA 300, day 22): 12.5 µg/mL
Concentration (MIC in drug resistance assay) (MRSA USA 300; MRSA USA 300, day 26): 12.5 µg/mL
Concentration (MIC in drug resistance assay) (MRSA USA 300; MRSA USA 300, day 27): 12.5 µg/mL
Concentration (MIC in drug resistance assay) (MRSA USA 300; MRSA USA 300, day 28): 12.5 µg/mL
Concentration (MIC in drug resistance assay) (MRSA USA 300; MRSA USA 300, day 29): 12.5 µg/mL
Concentration (MIC in drug resistance assay) (MRSA USA 300; MRSA USA 300, day 32): 12.5 µg/mL
Concentration (MIC in drug resistance assay) (MRSA USA 300; MRSA USA 300, day 33): 12.5 µg/mL
Concentration (MIC in drug resistance assay) (MRSA USA 300; MRSA USA 300, day 34): 12.5 µg/mL
Concentration (MIC in drug resistance assay) (MRSA USA 300; MRSA USA 300, day 35): 12.5 µg/mL
Concentration (MIC in drug resistance assay) (MRSA USA 300; MRSA USA 300, day 37): 12.5 µg/mL
Concentration (MIC in drug resistance assay) (MRSA USA 300; MRSA USA 300, day 38): 12.5 µg/mL
Concentration (MIC in drug resistance assay) (MRSA USA 300; MRSA USA 300, day 39): 12.5 µg/mL
Concentration (MIC in drug resistance assay) (MRSA USA 300; MRSA USA 300, day 40): 12.5 µg/mL
increase in MIC after 40 passages (MRSA USA 300; serial passage at sub-MIC): four-fold
cell surface morphology by SEM (in words) [2]: rough, shrunken, wrinkled and partially damaged
Concentration (MIC in drug resistance assay) ([3]; K. pneumoniae ATCC 700603, day 0): 6.25 µg/mL
Concentration (MIC in drug resistance assay) ([3]; K. pneumoniae ATCC 700603, day 1): 6.25 µg/mL
Concentration (MIC in drug resistance assay) ([3]; K. pneumoniae ATCC 700603, day 2): 6.25 µg/mL
Concentration (MIC in drug resistance assay) ([3]; K. pneumoniae ATCC 700603, day 3): 12.5 µg/mL
Concentration (MIC in drug resistance assay) ([3]; K. pneumoniae ATCC 700603, day 4): 12.5 µg/mL
Concentration (MIC in drug resistance assay) ([3]; K. pneumoniae ATCC 700603, day 5): 6.25 µg/mL
Concentration (MIC in drug resistance assay) ([3]; K. pneumoniae ATCC 700603, day 6): 6.25 µg/mL
Concentration (MIC in drug resistance assay) ([3]; K. pneumoniae ATCC 700603, day 7): 6.25 µg/mL
Concentration (MIC in drug resistance assay) ([3]; K. pneumoniae ATCC 700603, day 8): 6.25 µg/mL
Concentration (MIC in drug resistance assay) ([3]; K. pneumoniae ATCC 700603, day 9): 6.25 µg/mL
Concentration (MIC in drug resistance assay) ([3]; K. pneumoniae ATCC 700603, day 10): 12.5 µg/mL
Concentration (MIC in drug resistance assay) ([3]; K. pneumoniae ATCC 700603, day 11): 12.5 µg/mL
Concentration (MIC in drug resistance assay) ([3]; K. pneumoniae ATCC 700603, day 12): 12.5 µg/mL
Concentration (MIC in drug resistance assay) ([3]; K. pneumoniae ATCC 700603, day 13): 12.5 µg/mL
Concentration (MIC in drug resistance assay) ([3]; K. pneumoniae ATCC 700603, day 14): 25 µg/mL
Concentration (MIC in drug resistance assay) ([3]; K. pneumoniae ATCC 700603, day 15): 25 µg/mL
Concentration (MIC in drug resistance assay) ([3]; K. pneumoniae ATCC 700603, day 16): 25 µg/mL
Concentration (MIC in drug resistance assay) ([3]; K. pneumoniae ATCC 700603, day 17): 25 µg/mL
Concentration (MIC in drug resistance assay) ([3]; K. pneumoniae ATCC 700603, day 18): 12.5 µg/mL
Concentration (MIC in drug resistance assay) ([3]; K. pneumoniae ATCC 700603, day 19): 25 µg/mL
Concentration (MIC in drug resistance assay) ([3]; K. pneumoniae ATCC 700603, day 20): 25 µg/mL
Concentration (MIC in drug resistance assay) ([3]; K. pneumoniae ATCC 700603, day 21): 25 µg/mL
Concentration (MIC in drug resistance assay) ([3]; K. pneumoniae ATCC 700603, day 22): 12.5 µg/mL
Concentration (MIC in drug resistance assay) ([3]; K. pneumoniae ATCC 700603, day 23): 25 µg/mL
Concentration (MIC in drug resistance assay) ([3]; K. pneumoniae ATCC 700603, day 24): 50 µg/mL
Concentration (MIC in drug resistance assay) ([3]; K. pneumoniae ATCC 700603, day 25): 25 µg/mL
Concentration (MIC in drug resistance assay) ([3]; K. pneumoniae ATCC 700603, day 26): 25 µg/mL
Concentration (MIC in drug resistance assay) ([3]; K. pneumoniae ATCC 700603, day 27): 25 µg/mL
Concentration (MIC in drug resistance assay) ([3]; K. pneumoniae ATCC 700603, day 28): 25 µg/mL
Concentration (MIC in drug resistance assay) ([3]; K. pneumoniae ATCC 700603, day 29): 25 µg/mL
Concentration (MIC in drug resistance assay) ([3]; K. pneumoniae ATCC 700603, day 30): 50 µg/mL
Concentration (MIC in drug resistance assay) ([3]; K. pneumoniae ATCC 700603, day 31): 25 µg/mL
Concentration (MIC in drug resistance assay) ([3]; K. pneumoniae ATCC 700603, day 32): 25 µg/mL
Concentration (MIC in drug resistance assay) ([3]; K. pneumoniae ATCC 700603, day 33): 25 µg/mL
Concentration (MIC in drug resistance assay) ([3]; K. pneumoniae ATCC 700603, day 34): 12.5 µg/mL
Concentration (MIC in drug resistance assay) ([3]; K. pneumoniae ATCC 700603, day 35): 25 µg/mL
Concentration (MIC in drug resistance assay) ([3]; K. pneumoniae ATCC 700603, day 36): 25 µg/mL
Concentration (MIC in drug resistance assay) ([3]; K. pneumoniae ATCC 700603, day 37): 50 µg/mL
Concentration (MIC in drug resistance assay) ([3]; K. pneumoniae ATCC 700603, day 38): 25 µg/mL
Concentration (MIC in drug resistance assay) ([3]; K. pneumoniae ATCC 700603, day 39): 25 µg/mL
Concentration (MIC in drug resistance assay) ([3]; K. pneumoniae ATCC 700603, day 40): 25 µg/mL
increase in MIC after 40 passages ([3]; serial passage at sub-MIC): four-fold
